The source made the active and inactive calls. The calls are words filed in the database; no cut-off is given here.

Data on 37 compounds can be found in ChEMBL document CHEMBL1122453, “Structure-activity relationships in the antiinflammatory steroids: a pattern-recognition approach” (1983).

The species named for test [1] is Homo sapiens. Nature of the test: Potency relative to fluocinolone 16,17-acetonide(Experimental vasoconstictor activity) in human; 15-45. In kind it is functional.
The species entered for test [2] is Rattus norvegicus. Nature of the test: Anti-inflammatory effect in rat granuloma assay, activity relative to hydrocortisone and hydrocortisone 21-acetate. It counts as functional.
The species entered for test [3] is Homo sapiens.
Test [4] is filed under the species Homo sapiens. Nature of the test: Potency relative to fluocinolone 16,17-acetonide(Experimental vasoconstictor activity) in human; 16-34. In kind it is functional.
For test [5], the species on record is Homo sapiens. The test can be described thus: Potency relative to fluocinolone 16,17-acetonide(Experimental vasoconstictor activity) in human;NA = Not active. It counts as functional, organism-based.
The species named for test [6] is Rattus norvegicus. The test can be described thus: Experimental relative rat granuloma activity (relative to hydrocortisone and hydrocortisone 21-acetate); 0.15-0.5. It counts as functional.
For test [7], the species on record is Homo sapiens. The test can be described thus: Potency relative to fluocinolone 16,17-acetonide in the human vasoconstictor test. In kind it is functional.
For test [8], the species on record is Homo sapiens. Nature of the test: Potency relative to fluocinolone 16,17-acetonide(Experimental vasoconstictor activity) in human; 100-300. In kind it is functional.
The species named for test [9] is Homo sapiens. The test can be described thus: Potency relative to fluocinolone 16,17-acetonide(Experimental vasoconstictor activity) in human. In kind it is functional.
The species entered for test [10] is Homo sapiens. Nature of the test: Potency relative to fluocinolone 16,17-acetonide(Experimental vasoconstictor activity) in human;NA =Not active. In kind it is functional, organism-based.
Test [11] is filed under the species Homo sapiens. The test can be described thus: Potency relative to fluocinolone 16,17-acetonide(Experimental vasoconstictor activity) in human; 900-1080. In kind it is functional.
For test [12], the species on record is Homo sapiens. Nature of the test: PPotency relative to fluocinolone 16,17-acetonide(Experimental vasoconstictor activity) in human; NA= Not active. It counts as functional, organism-based.
The species entered for test [13] is Rattus norvegicus. The test can be described thus: Experimental relative rat granuloma activity (relative to hydrocortisone and hydrocortisone 21-acetate); 200-500. It counts as functional.
The species entered for test [14] is Homo sapiens. The test can be described thus: Potency relative to fluocinolone 16,17-acetonide(Experimental vasoconstictor activity)in human; NA= Not active. It counts as functional, organism-based.

Turning to `C[C@]12C=CC(=O)C=C1[C@@H](F)C[C@H]1[C@@H]3C[C@@H](O)[C@](O)(C(=O)CO)[C@@]3(C)C[C@H](O)[C@@]12F` [FLUOCINOLONE], the Potency came to 15 in the test listed under Homo sapiens [1] and 19.7 in the test listed under Rattus norvegicus [2].

Consider `CCCC(=O)OCC(=O)[C@@]1(OC(C)=O)CCC2C3C[C@H](F)C4=CC(=O)C=CC4(C)[C@@]3(F)C(O)CC21C` (stereo partly specified), for which the Potency entry in the test listed under Homo sapiens [3] is “inactive”.

As for `CC(=O)OCC(=O)[C@]1(O)C2(C)C[C@H](O)C3C(CCC4=CC(=O)C=CC43C)C2C[C@@]1(C)O` (stereo partly specified), the Potency entry in the test listed under Homo sapiens [3] was “inactive”.

On to `CCCCC(=O)O[C@]1(C(=O)CO)CCC2C3CCC4=CC(=O)CCC4(C)C3C(O)CC21C` (stereo partly specified), for which the Potency in the test listed under Homo sapiens [4] was 16.

With `CC1(C)O[C@@H]2CC3C4CCC5=CC(=O)CCC5(C)C4[C@@H](O)CC3(C)[C@]2(C(=O)CCl)O1` (stereo partly specified), the Potency entry in the test filed under Homo sapiens [3] is “inactive”.

With `CC(=O)OCC(=O)[C@@]1(O)[C@H](C)CC2C3C[C@H](F)C4=CC(=O)C=CC4(C)C3C(O)CC21C` (stereo partly specified), in the test filed under Homo sapiens [5], the Potency result was “inactive”. For the same compound, the Potency in the test listed under Rattus norvegicus [2] stood at 60.

Compound `CC(=O)OCC(=O)[C@@]1(O)CCC2C3CCC4=CC(=O)C=CC4(C)C3[C@@H](Cl)CC21C` (stereo partly specified) yielded a Potency in the test filed under Rattus norvegicus [6] of 0.15.

On to `CC(=O)OCC(=O)[C@@]1(O)CCC2C3CCC4=CC(=O)CCC4(C)[C@@]3(Cl)[C@@H](Cl)CC21C` (stereo partly specified), for which the Potency in the test listed under Rattus norvegicus [6] was 0.15.

With `C[C@@H]1CC2C3CCC4=CC(=O)C=CC4(C)[C@@]3(F)C(O)CC2(C)C1C(=O)CO` (stereo partly specified) [DEOXYMETHASONE], the Potency in the test listed under Rattus norvegicus [2] turned out to be 10. Further, in the test listed under Homo sapiens [3], the Potency entry was “inactive”.

In the case of `CC1(C)O[C@@H]2C[C@H]3[C@@H]4C[C@H](F)C5=CC(=O)CC[C@]5(C)[C@H]4[C@@H](O)C[C@]3(C)[C@]2(C(=O)CO)O1` [FLURANDRENOLIDE], the Potency is given as 12 in the test listed under Homo sapiens [7] and 100 in the test listed under Homo sapiens [8].

For the compound `CC12CCC(=O)C=C1CCC1C2[C@@H](O)CC2(C)C1CC[C@]2(O)C(=O)OCCl` (stereo partly specified), in the test filed under Homo sapiens [3], the Potency result is “inactive”.

Take `CCC(=O)O[C@]1(C(=O)OCCl)CCC2C3CCC4=CC(=O)CCC4(C)C3[C@@H](O)CC21C` (stereo partly specified): the Potency entry in the test listed under Homo sapiens [3] was “inactive”.

As to `CC1(C)O[C@@H]2C[C@H]3[C@@H]4C[C@H](F)C5=CC(=O)C=C[C@]5(C)[C@@]4(F)[C@@H](O)C[C@]3(C)[C@]2(C(=O)CO)O1` [FLUOCINOLONE ACETONIDE], the Potency in the test listed under Rattus norvegicus [2] is 450; in the test filed under Homo sapiens [9] it was 100.

Consider `CC(=O)O[C@]1(C(=O)CO)CCC2C3CCC4=CC(=O)CCC4(C)C3C(O)CC21C` (stereo partly specified), for which the Potency result in the test listed under Homo sapiens [3] is “inactive”.

On to `CC1(C)O[C@@H]2C[C@H]3[C@@H]4CCC5=CC(=O)CC[C@]5(C)[C@@]4(F)[C@@H](O)C[C@]3(C)[C@]2(C(=O)CCl)O1` [HALCINONIDE], for which the Potency in the test listed under Homo sapiens [7] is recorded as above 360. Also, the Potency result in the test filed under Homo sapiens [3] was “inactive”.

For the compound `C[C@@H]1CC2C3C[C@H](Cl)C4=CC(=O)C=CC4(C)C3C(O)CC2(C)C1C(=O)COC(=O)C(C)(C)C` (stereo partly specified), in the test filed under Homo sapiens [3], the Potency result is “inactive”.

In the case of `CCCCC(=O)O[C@]1(C(=O)COC(C)=O)CCC2C3CCC4=CC(=O)C=CC4(C)C3C(O)CC21C` (stereo partly specified), in the test filed under Homo sapiens [3], the Potency entry is “inactive”.

On to `CCCC(=O)O[C@]1(C(=O)CO)CC[C@H]2[C@@H]3CCC4=CC(=O)CC[C@]4(C)[C@H]3[C@@H](O)C[C@@]21C` [HYDROCORTISONE BUTYRATE], for which the Potency was 50 in the test listed under Homo sapiens [7] and 1 in the test listed under Rattus norvegicus [2].

Turning to `C[C@]12C[C@H](O)[C@H]3[C@@H](CCC4=CC(=O)CC[C@@]43C)[C@@H]1CC[C@@H]2C(=O)CO` [CORTICOSTERONE], the Potency in the test filed under Homo sapiens [7] and in the test listed under Rattus norvegicus [2] was 0.3 each time.

As to `CC1(C)O[C@@H]2C[C@H]3[C@@H]4CCC5=CC(=O)C=C[C@]5(C)[C@H]4[C@@H](O)C[C@]3(C)[C@]2(C(=O)CO)O1` [DESONIDE], the Potency result in the test listed under Homo sapiens [10] was “inactive”. In the test filed under Rattus norvegicus [2], this compound gave a Potency of 66.2.

`CCCC(=O)O[C@]1(C(C)=O)CCC2C3C[C@H](F)C4=CC(=O)C=CC4(C)[C@@]3(F)C(O)CC21C` (stereo partly specified) had a Potency in the test listed under Homo sapiens [11] of 900.

Turning to `CC1(C)O[C@@H]2CC3C4C[C@H](F)C5=CC(=O)C=CC5(C)[C@@]4(F)[C@@H](O)CC3(C)[C@]2(C(=O)C(=O)OCCl)O1` (stereo partly specified), in the test filed under Homo sapiens [3], the Potency result is “inactive”.

In the case of `CCC(=O)OCC(=O)C1(C)C(C)CC2C3CCC4=CC(=O)C=CC4(C)[C@@]3(F)CCC21C` (stereo partly specified), the Potency entry in the test filed under Homo sapiens [3] is “inactive”.

Consider `C[C@H]1C[C@H]2[C@@H]3CCC4=CC(=O)C=C[C@]4(C)[C@@]3(F)[C@@H](O)C[C@]2(C)[C@@]1(O)C(=O)CO` [BETAMETHASONE], for which the results for the Potency in the test listed under Homo sapiens [7] and in the test listed under Rattus norvegicus [2] were 0.8 and 35.8, respectively.

For `CC(=O)OCC(=O)[C@@]1(O)CC[C@H]2[C@@H]3CCC4=CC(=O)C=C[C@]4(C)[C@H]3[C@@H](O)C[C@@]21C` [PREDNISOLONE ACETATE], the results for the Potency in the test filed under Homo sapiens [7] and in the test filed under Rattus norvegicus [2] were 1 and 3, respectively.

As for `C[C@@H]1C[C@H]2[C@@H]3C[C@H](F)C4=CC(=O)C=C[C@]4(C)[C@H]3[C@@H](O)C[C@]2(C)[C@@]1(O)C(=O)CO` [PARAMETHASONE], in the test filed under Rattus norvegicus [2], the Potency was determined as 63.6. For the same compound, the Potency result in the test filed under Homo sapiens [3] was “inactive”.

As for `C[C@@H]1CC2C3CCC4=CC(=O)C=CC4(C)[C@@]3(F)[C@@H](O)CC2(C)[C@@]1(C)C(=O)CO` (stereo partly specified), the Potency entry in the test filed under Homo sapiens [3] is “inactive”.

On to `CC1(C)O[C@@H]2CC3C4CCC5=CC(=O)C=CC5(C)C4[C@@H](O)CC3(C)[C@]2(C(=O)CCl)O1` (stereo partly specified), for which the Potency result in the test listed under Homo sapiens [12] was “inactive”.

In the case of `C[C@H]1CC2C3CCC4=CC(=O)C=CC4(C)[C@@]3(F)[C@@H](O)CC2(C)[C@@]1(O)C(=O)CCl` (stereo partly specified), the Potency result in the test listed under Homo sapiens [3] is “inactive”.

The compound `C[C@@H]1C[C@H]2[C@@H]3C[C@H](F)C4=CC(=O)C=C[C@]4(C)[C@@]3(F)[C@@H](O)C[C@]2(C)[C@@]1(O)C(=O)CO` [FLUMETHASONE] gave a Potency in the test listed under Rattus norvegicus [13] of 200.

Turning to `CCC(=O)[C@@]1(C)[C@H](C)CC2C3CCC4=CC(=O)C=C[C@]4(C)C3[C@@H](O)C[C@@]21C` (stereo partly specified), the Potency entry in the test listed under Homo sapiens [3] was “inactive”.

Take `C[C@@H]1C[C@H]2[C@@H]3C[C@H](F)C4=CC(=O)C=C[C@]4(C)[C@H]3[C@@H](O)C[C@]2(C)[C@H]1C(=O)CO` [FLUOCORTOLONE]: the Potency result in the test filed under Homo sapiens [14] is “inactive”. This compound also yielded a Potency in the test listed under Rattus norvegicus [2] of 350.

In the case of `CC1CC2C3CCC4=CC(=O)C=CC4(C)[C@@]3(F)C(O)CC2(C)[C@@]1(O)C(=O)COP(=O)(O)O` (stereo partly specified), the Potency result in the test filed under Homo sapiens [3] is “inactive”.

`CCCCC(=O)OCC(=O)[C@H]1[C@H](C)C[C@H]2[C@@H]3C[C@H](F)C4=CC(=O)C=C[C@]4(C)[C@@]3(F)[C@@H](O)C[C@@]21C`: in the test filed under Homo sapiens [14], the Potency result was “inactive”.

For `CCC(=O)O[C@]1(C(=O)C(=O)OCCl)CC[C@H]2C3CCC4=CC(=O)CCC4(C)C3[C@@H](O)CC21C` (stereo partly specified), the Potency result in the test filed under Homo sapiens [3] is “inactive”.

`C[C@@H]1CC2C3C[C@H](F)C4=CC(=O)C=CC4(C)[C@@]3(F)C(O)CC2(C)C1C(=O)COC(=O)C(C)(C)C` (stereo partly specified): the Potency result in the test filed under Homo sapiens [3] is “inactive”.

Regarding `CC(=O)OCC(=O)[C@@]1(O)CC[C@H]2[C@@H]3CCC4=CC(=O)CC[C@]4(C)[C@H]3[C@@H](O)C[C@@]21C` [HYDROCORTISONE ACETATE], the Potency in the test filed under Homo sapiens [7] and in the test filed under Rattus norvegicus [2] was 1 each time.
